Tests used:
Test in all cases: normalised response (% of control), CellTiter-Glo; higher = more viable cells (100 = DMSO, 0 = benzethonium chloride kill control)
Details in all cases: incubation time: 72 h
BT-474 = test system: BT-474
In short: (§1)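 Breast cancer cell lines were exposed for 72 h in 384-well plates to compound at 5 concentrations, 10-fold apart, covering a 10,000-fold range fixed for each compound. Plates were read for CellTox Green fluorescence and CellTiter-Glo luminescence and normalised to 0.1 % DMSO (100) and a positive kill control (0). Each value is the normalised signal at one concentration of the series.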

BT-549 = test system: BT-549
In short: as §1

CAL-120 = test system: CAL-120
In short: as §1

CAL-148 = test system: CAL-148
In short: as §1

CAL-51 = test system: CAL-51
In short: as §1

CAL-85-1 = test system: CAL-85-1
In short: as §1

DU-4475 = test system: DU-4475
In short: as §1

HCC1143 = test system: HCC1143
In short: as §1

HCC1599 = test system: HCC1599
In short: as §1

HCC1937 = test system: HCC1937
In short: as §1

HDQ-P1 = test system: HDQ-P1
In short: as §1

Hs578T = test system: Hs578T
In short: as §1

MCF-10A = test system: MCF-10A
In short: as §1

MDA-MB-231 = test system: MDA-MB-231
In short: as §1

MDA-MB-436 = test system: MDA-MB-436
In short: as §1

MDA-MB-453 = test system: MDA-MB-453
In short: as §1

MDA-MB-468 = test system: MDA-MB-468
In short: as §1

MFM-223 = test system: MFM-223
In short: as §1

SK-BR-3 = test system: SK-BR-3
In short: as §1

| Compound | normalised response (BT-474) | normalised response (BT-549) | normalised response (CAL-120) | normalised response (CAL-148) | normalised response (CAL-51) | normalised response (CAL-85-1) | normalised response (DU-4475) | normalised response (HCC1143) | normalised response (HCC1599) | normalised response (HCC1937) | normalised response (HDQ-P1) | normalised response (Hs578T) | normalised response (MCF-10A) | normalised response (MDA-MB-231) | normalised response (MDA-MB-436) | normalised response (MDA-MB-453) | normalised response (MDA-MB-468) | normalised response (MFM-223) | normalised response (SK-BR-3) |
| --- | --- | --- | --- | --- | --- | --- | --- | --- | --- | --- | --- | --- | --- | --- | --- | --- | --- | --- | --- |
| CN(c1ccccc1CNc1nc(Nc2ccc3c(c2)CC(=O)N3)ncc1C(F)(F)F)S(C)(=O)=O (1 nM) | 95.5% | 100% | 93% | 91.6% | 96.2% | 94.9% | 95.9% | 93% | 98.4% | 99.5% | 101% | 97.8% | 96.3% | 95.4% | 106% | 95.4% | 90.3% | 89.5% | 96% |
| COc1ncc(-c2ccc3nccc(-c4ccnnc4)c3c2)cc1NS(=O)(=O)c1ccc(F)cc1F (1 nM) | 91.6% | 93.5% | 93% | 105% | 111% | 101% | 103% | 101% | 95.3% | 95.3% | 81.3% | 101% | 94.2% | 92.9% | 93.1% | 98.2% | 109% | 109% | 84.6% |
| Nc1nccc(-c2c(-c3ccc(F)cc3)ncn2C2CCCCC2)n1 (1 nM) | 97.9% | 109% | 95.7% | 105% | 119% | 98.8% | 102% | 109% | 104% | 105% | 101% | 104% | 110% | 105% | 100% | 95.5% | 94.1% | 102% | 108% |
| CN(c1ccccc1CNc1nc(Nc2ccc3c(c2)CC(=O)N3)ncc1C(F)(F)F)S(C)(=O)=O (10 nM) | 92.1% | 97% | 94.4% | 101% | 102% | 94.6% | 94.8% | 99.5% | 91.4% | 97.5% | 101% | 92% | 100% | 87.9% | 92% | 96.6% | 84.8% | 91.4% | 111% |
| C[C@@]1(C(=O)Nc2ccc(F)nc2)CCCN1c1nc(Nc2cc(C3CC3)n[nH]2)c2cccn2n1 (10 nM) | 90.7% | 88% | 91.2% | 87.3% | 99.3% | 91.6% | 99.5% | 97.5% | 96.1% | 95.4% | 85.4% | 92.4% | 67.5% | 88.1% | 92.5% | 92.8% | 86.8% | 83.4% | 71.5% |
| Nc1nccc(-c2c(-c3ccc(F)cc3)ncn2C2CCCCC2)n1 (10 nM) | 106% | 90.7% | 102% | 116% | 104% | 106% | 107% | 110% | 86.8% | 100% | 102% | 107% | 111% | 100% | 95.7% | 106% | 96% | 110% | – |
| COc1c(C)cnc(Cn2cnc3c(Cl)nc(N)nc32)c1C [BIIB021] (10 nM) | 101% | 99.6% | 99% | 94.6% | 116% | 96.9% | 102% | 108% | 109% | 105% | 97.5% | 97.6% | 96.6% | 99.3% | 101% | 102% | 102% | 102% | – |
| CC(C)C[C@H](NC(=O)[C@H](Cc1ccccc1)NC(=O)c1cnccn1)B(O)O [Bortezomib] (1 nM) | 99.2% | 98.2% | 102% | 102% | 77.6% | 98.8% | 101% | 94.2% | 108% | 98.8% | 101% | 109% | 102% | 104% | 90.8% | 97% | 95% | 103% | – |
| CS(=O)(=O)OCCCCOS(C)(=O)=O [Busulfan] (100 nM) | 101% | 97.2% | 99.1% | 101% | 121% | 98.1% | 109% | 112% | 94.5% | 97.9% | 99.7% | 105% | 108% | 101% | 97.2% | 109% | 106% | 112% | 97.5% |
| C#Cc1cccc(Nc2ncnc3cc(OC)c(OCCCCCCC(=O)NO)cc23)c1 [CUDC-101] (10 nM) | 98% | 101% | 99.8% | 87.5% | 84.9% | 92.6% | 99% | 99.9% | 93.9% | 104% | 95.8% | 96.4% | 97.5% | 98.1% | 105% | 103% | 101% | 100% | – |
| COc1cccc2c1C(=O)c1c(O)c3c(c(O)c1C2=O)C[C@@](O)(C(C)=O)C[C@@H]3O[C@H]1C[C@H](N)[C@H](O)[C@H](C)O1 [Daunorubicin] (1 nM) | 106% | 94.2% | 96.9% | 109% | 122% | 96.2% | 107% | 109% | 109% | 99.9% | 104% | 112% | 107% | 105% | 101% | 108% | 105% | 108% | – |
| CN1CCN(c2ccc3nc(-c4c(N)c5c(F)cccc5[nH]c4=O)[nH]c3c2)CC1 [Dovitinib] (10 nM) | 102% | 91.8% | 95.6% | 94.9% | 77.6% | 91.5% | 97.8% | 102% | 102% | 101% | 96.1% | 97.6% | 98.3% | 98.6% | 98.1% | 88.4% | 97% | 95.1% | – |
| O=c1[nH]c(=O)n([C@H]2C[C@H](O)[C@@H](CO)O2)cc1F [Floxuridine] (10 nM) | 102% | 100% | 99.5% | 110% | 122% | 104% | 98.1% | 109% | 93.1% | 98.2% | 90.2% | 92.3% | 105% | 105% | 92.5% | 111% | 96.7% | 111% | – |
| O=c1[nH]cc(F)c(=O)[nH]1 [Fluorouracil] (10 nM) | 103% | 107% | 95.1% | 112% | 104% | 96.1% | 110% | 121% | 99.3% | 106% | 102% | 110% | 111% | 107% | 99.1% | 101% | 105% | 113% | – |
| C[C@@H]1C=C2C(=O)O[C@@H]3CC[C@H](C1)[C@]23O [Galiellalactone] (50 nM) | 104% | 98.9% | 102% | 111% | 101% | 102% | 105% | 107% | 98.2% | 102% | 104% | 104% | 114% | 104% | 106% | 108% | 106% | 114% | 112% |
| COC1=C2C[C@@H](C)C[C@H](OC)[C@H](O)[C@@H](C)/C=C(\C)[C@H](OC(N)=O)[C@@H](OC)/C=C\C=C(/C)C(=O)NC(=CC1=O)C2=O [Geldanamycin] (10 nM) | 106% | 97.3% | 102% | 113% | 112% | 99.6% | 105% | 101% | 101% | 99.9% | 100% | 108% | 106% | 105% | 104% | 106% | 105% | 105% | 110% |
| CS(=O)(=O)CCNCc1ccc(-c2ccc3ncnc(Nc4ccc(OCc5cccc(F)c5)c(Cl)c4)c3c2)o1 [Lapatinib] (0.1 nM) | 102% | 101% | 96% | 110% | 110% | 106% | 109% | 99.2% | 90.2% | 98.8% | 101% | 101% | 98.4% | 100% | 86.2% | 121% | 112% | 104% | 114% |
| COc1ccc(C2=N[C@@H](c3ccc(Cl)cc3)[C@@H](c3ccc(Cl)cc3)N2C(=O)N2CCNC(=O)C2)c(OC(C)C)c1 [Nutlin-3] (10 nM) | 97.4% | 101% | 98.3% | 102% | 86.3% | 101% | 104% | 106% | 104% | 103% | 100% | 104% | 99.6% | 100% | 99.9% | 100% | 105% | 103% | – |
| CC(=O)O[C@H]1C(=O)[C@@]2(C)[C@H]([C@H](OC(=O)c3ccccc3)[C@]3(O)C[C@H](OC(=O)[C@H](O)[C@@H](NC(=O)c4ccccc4)c4ccccc4)C(C)=C1C3(C)C)[C@]1(OC(C)=O)CO[C@@H]1C[C@@H]2O [Paclitaxel] (1 nM) | 89.5% | 93.1% | 91.6% | 89.2% | 129% | 99.5% | 92.2% | 90.4% | 97.8% | 94.7% | 89.8% | 88.8% | 81.5% | 88.6% | 91.4% | 92.8% | 96.1% | 89.5% | – |
| C[C@@H]1CCN(C(=O)CC#N)C[C@@H]1N(C)c1ncnc2[nH]ccc12 [Tofacitinib] (5 nM) | 114% | 97.2% | 95.7% | 111% | 122% | 112% | 110% | 105% | 115% | 96.3% | 103% | 103% | 108% | 103% | 104% | 120% | 104% | 101% | – |
| FC(F)c1nc2ccccc2n1-c1nc(N2CCOCC2)nc(N2CCOCC2)n1 [ZSTK474] (10 nM) | 98.2% | 95.4% | 96.9% | 99.7% | 75.5% | 92.5% | 101% | 97.6% | 105% | 99.8% | 95% | 101% | 103% | 89.9% | 91.3% | 101% | 100% | 100% | – |

From the supplement of paper PMC4862054
